One assay deals with hPin1 (Homo sapiens, UniProt Q13526). Nature of the assay: protease-coupled PPIase assay, hPin1. Format: biochemical. As to conditions: 6 nM hPin1; substrate Ac-Ala-Ala-Ser(PO3H2)-Pro-Arg-pNA, trypsin; 35 mM HEPES pH 7.8, 6° C; read-out: Target T-1 (hPin1), IC50 class.
In the next assay the target is hFKBP12 (Homo sapiens, UniProt P62942). As to the kind of experiment: protease-coupled PPIase assay, hFKBP12. Format: biochemical. Particulars: 20 nM hFKBP12; substrate Suc-Ala-Phe-Pro-Phe-pNA, α-chymotrypsin; 35 mM HEPES pH 7.8, 6° C; read-out: Target T-2 (hFKBP12), IC50 class.
A further assay deals with hCyp18 (Homo sapiens, UniProt P62937). As to the kind of experiment: protease-coupled PPIase assay, hCyp18. It counts as biochemical. Particulars: 10 nM hCyp18; substrate Suc-Ala-Phe-Pro-Phe-pNA, α-chymotrypsin; 35 mM HEPES pH 7.8, 6° C; read-out: Target T-3 (hCyp18), IC50 class.
A further assay has as its target LpCyp18 (Legionella pneumophila, UniProt Q5ZRZ4). As to the kind of experiment: biochemical.
The target of another assay is EcParvulin (Escherichia coli, UniProt P0A9L5). As to the kind of experiment: protease-coupled PPIase assay, EcParvulin. Format: biochemical. Particulars: 20 nM EcParvulin; substrate Suc-Ala-Phe-Pro-Phe-pNA, α-chymotrypsin; 35 mM HEPES pH 7.8, 6° C; read-out: Target T-5 (EcParv), IC50 class.

Where a SMILES comes first, the peptide text is derived from it. [ ]: non-standard residue; d: D form. Phe(3-CN) = N#Cc1cccc(C[CH](N)C(=O)O)c1; Phe(2-CN) = N#Cc1ccccc1C[CH](N)C(=O)O; 1Nal = N[CH](Cc1cccc2ccccc12)C(=O)O Bounds are passed on as bounds.

A word on the IC50: it is the midpoint of a concentration-inhibition curve.

Chain of LpCyp18 (Q5ZRZ4 1-164): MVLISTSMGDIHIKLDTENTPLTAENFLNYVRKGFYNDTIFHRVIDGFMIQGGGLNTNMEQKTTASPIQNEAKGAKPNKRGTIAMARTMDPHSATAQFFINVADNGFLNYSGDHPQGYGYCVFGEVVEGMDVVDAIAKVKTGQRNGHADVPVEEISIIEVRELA
Chain of hPin1 (Q13526 whole entry): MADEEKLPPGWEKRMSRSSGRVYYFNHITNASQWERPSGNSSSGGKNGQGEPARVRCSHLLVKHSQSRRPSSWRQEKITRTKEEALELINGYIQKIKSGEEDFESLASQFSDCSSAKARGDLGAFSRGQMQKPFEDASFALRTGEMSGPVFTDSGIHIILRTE
Chain of hFKBP12 (P62942 whole entry): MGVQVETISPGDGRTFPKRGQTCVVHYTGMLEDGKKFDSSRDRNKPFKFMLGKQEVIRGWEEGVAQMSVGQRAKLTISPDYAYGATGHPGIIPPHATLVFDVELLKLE
Chain of hCyp18 (P62937 whole entry): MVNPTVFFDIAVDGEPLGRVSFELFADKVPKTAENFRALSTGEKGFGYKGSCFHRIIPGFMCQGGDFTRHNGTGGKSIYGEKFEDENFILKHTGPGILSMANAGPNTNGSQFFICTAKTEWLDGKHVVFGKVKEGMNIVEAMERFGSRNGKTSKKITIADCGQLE
Chain of EcParvulin (P0A9L5 whole entry): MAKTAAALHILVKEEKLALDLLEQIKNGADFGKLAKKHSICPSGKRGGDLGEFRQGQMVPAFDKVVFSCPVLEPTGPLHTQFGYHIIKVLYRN

Take `CCc1ccc(NC(=S)NCCC#N)cc1` [Compound 5]: the IC50 at hPin1 was < 5 µM; on hFKBP12, > 100 µM; on hCyp18, > 100 µM; at LpCyp18 it was > 100 µM.
Consider `CCNC(=S)NC(Cc1ccc2ccccc2c1)C(=O)NCCC#N` (stereo not drawn) [Compound 1], for which the IC50 on hPin1 is < 5 µM; at hFKBP12 it was > 100 µM; on hCyp18, > 100 µM; at LpCyp18 it was > 100 µM.
As to `CC(C)CC(NC(=O)C1CCCN1CC#N)C(N)=O` (stereo not drawn) [Compound 6], the half-maximal inhibitory concentration (IC50) was 5 to 10 µM on hPin1, > 100 µM on hFKBP12, > 100 µM on hCyp18 and > 100 µM against LpCyp18.
`N#CCCNC(=O)[C@H](Cc1csc2ccccc12)NC(=S)Nc1ccc(SC(F)(F)F)cc1` [Compound 2]: the half-maximal inhibitory concentration (IC50) was 5 to 10 µM at hPin1, > 100 µM on hFKBP12, > 100 µM at hCyp18 and > 100 µM on LpCyp18.
For the compound `CC(=O)NC(Cc1cccc2ccccc12)C(=O)NC(Cc1cccc(C#N)c1)C(N)=O` (stereo not drawn) [Compound 9] (Ac-[1Nal]-[Phe(3-CN)]-NH2; configuration not given here), the IC50 on hPin1 is 5 to 10 µM; on hFKBP12, > 100 µM; at hCyp18, > 100 µM; on LpCyp18, > 100 µM; on EcParvulin, 5 to 10 µM.
For `CC(=O)NC(Cc1cccc2ccccc12)C(=O)NC(Cc1ccccc1C#N)C(N)=O` (stereo not drawn) [Compound 8] (Ac-[1Nal]-[Phe(2-CN)]-NH2; configuration not given here), the IC50 is < 5 µM at hPin1, > 100 µM on hFKBP12, > 100 µM on hCyp18 and > 100 µM at LpCyp18.
For the compound `N#CCCNS(=O)(=O)Cc1ccccc1` [Compound 3], the 50% inhibitory concentration (IC50) at hPin1 is 5 to 10 µM; at hFKBP12, > 100 µM; on hCyp18 it was > 100 µM; against LpCyp18 it was > 100 µM.
As to `CN(C)c1ccc(N=Nc2ccc(S(=O)(=O)NCCC#N)cc2)cc1` [Compound 7], the IC50 on hPin1 was 5 to 10 µM; at hFKBP12 it was > 100 µM; at hCyp18 it was > 100 µM; at LpCyp18 it was > 100 µM.

The values above are taken from patent US20060252813A1, “Apparatus for curing a composite laminate” (priority 2002, published 2006).
